For one series, the system named is E. coli strain UZ_TEM104. It is filed as cell-based. The settings on record: peptide alone. The text has this: In order to generate a synthetic amyloid peptide capable of inactivating the TEM-1 beta-lactamase enzyme by capitalizing on its aggregation propensity, we applied a previously developed design pattern for synthetic aggregating sequences. This involves a tandem repeat of the APR, each instance flanked by charged amino acids for solubility and separated by a short peptide linker^19,20,23 (FIG. 2G). Previous work has shown that good bacterial uptake can be achieved using one positively charged arginine residue on the N-terminal side of each APR in the tandem and two arginine residues on the C-terminal side. This has the additional benefit of reducing the self-aggregation of the peptides and increasing their solubility prior to target engagement. As before, we employed a single Pro residue as a linker between the APRs and focused on an APR length of seven, extending shorter APRs to this length by incorporating flanking amino acids unless they were obvious aggregation breakers (Arg, Lys, Asp, Glu or Pro, see Table 1). We obtained these peptides from solid phase synthesis, followed by HPLC purification to a purity judged by reverse phase chromatography of at least 90% (Genscript).
(§1) Determination of MIC values using the broth microdilution in the 96-well plate (BD Biosciences, Belgium) according to the EUCAST guideline, which was performed in 96-well polystyrene flat bottom microtiter plates (BD Biosciences). Briefly, a single colony was inoculated into 5 mL Difco™ Mueller Hinton Broth (BD Biosciences Ref 275730) and grown to the end-exponential growth phase in a shaking incubator at 37° C. Cultures were subsequently diluted to an MacFarland (0.5 optical density) then the culture was diluted to reach 10^6 CFU/mL in fresh MHB medium. 50 μl of different concentration of peptides ranging from 128 to 2 μg/mL were serially diluted to the sterile 96-well plate in MHB. 50 μL of the diluted bacteria in MHB were pipetted into 96-well plates to reach the final volume of 100 μL. The bacteria grown with the maximum concentration of carrier and medium were considered as positive and negative controls, respectively. The plates were statically incubated overnight at 37° C. to allow bacterial growth. OD was measured at 590 nm a multipurpose ultraviolet-visible plate reader, and the absorbance of the growth bacteria was measured using absorbance reader. Bacterial growth was also visually inspected and agreed well with the OD reading.

The test system of the next series is human erythrocytes. It is filed as cell-based. The text has this: FIGS. 4A-4K. […] IV—Intravenous, IP—Intraperitoneal, SC—Subcutaneously. The data shown is from a single experiment with 4 animals per group. […] (ns—non significant, #—P>0.05, *—P≤0.05, ***—P≤0.01, ****—P≤0.001). (FIG. 4G) FICI plot as in FIG. 2, for the E. coli strains indicated and the combination of penicillin and the TEM3.2 peptide. […] (FIG. 4J) Same as FIG. 4H for peptide BGAL. (FIG. 4K) Same as FIG. 4H for peptide P33.
Given this broad activity on clinical isolates, we wondered if the TEM3.2 peptide could be used to re-sensitize bacteria to ampicillin treatment in vivo, in a mouse Urinary Tract Infection (UTI) model.
EDTA was used as the anticoagulant. […] Plate centrifuged for 10 min at 3000×g. […] Erythrocytes in 1% Triton and maximum used concentration of buffer were used as the control of 100% and 0% hemolysis, respectively.

Another series deals with HEK293. It is filed as cell-based, human.
The subject of series [1] is E. coli K12 MG1655 overexpressing GFP. Description: Structured Illumination Microscopy of bacterial strains stably expressing GFP or FP fusions. It is filed as cell-based. To be noted: strains expressing GFP or proteins fused to FPs, treated with TEM3.2. The method, then: (§2) FIGS. 3A-3P. […] Three replicates are shown for each condition. […] A single representative image is shown. […] Three replicates are shown for each condition. (FIG. 3E) [Left] […] [Middle] […] [Right] […] A single representative image is shown. […] A single representative image is shown. […] A single representative image is shown. […] A single representative blot is shown. […] 106 cells were analysed for the plot.
(§3) Moreover, we confirmed the presence of the protein in the correct band using mass spectrometry proteomics. We repeated this with a strain expressing SHV-154, blotting with a polyclonal rabbit antibody raised against the recombinant SHV enzyme described above (FIG. 3K).
Bacteria were fixed by adding 2.5% paraformaldehyde and 0.04% glutaraldehyde (final concentrations) to the culture media, followed by incubation at room temperature for 15 mins and 30 mins on ice. Bacteria were then washed in PBS and resuspended in GTE buffer (50 mM glucose, 25 mM Tris, and 10 mM EDTA, pH 8.0). Directly preceding microscopic analysis, cells were transferred to a glass slide and covered with a coverslip. Imaging was performed using a Zeiss Elyra S.1 system in the LiMoNe Light microscopy facility of VIB-KU Leuven.

Series [2] concerns uro-pathogenic E. coli strain (UPEC strain blaTEM-1). Nature of the series: MIC of ampicillin on the uro-pathogenic strain. It is filed as cell-based. To be noted: 32 μg/ml of TEM3.2 or tazobactam. On the procedure:
Vehicle alone (0.9% NaCl) was also administered (IV).
as §1

The test system of series [3] is E. coli strain lacking TEM (ATCC 25922). Nature of the series: Structured Illumination Microscopy of peptide-treated bacteria lacking TEM. It is filed as cell-based. The settings on record: same treatment as UZ_TEM104. The method, then:
as §2, §3
The bacterial cultures were washed with PBS and the number of the bacteria were adjusted to 10^8-10^9 cells/mL. […] Then, cells were treated with LCO dyes (pFTAA; Amytacker™ 680 or Amytacker™ 545: final concentration of 0.5 μM; Ebba Biotech, Sweden) for at least 90 min. The absorption, emission and excitation spectra for each dye were measured based on the standard Ebbabiotec advice (ebbabiotech.com).
Bacteria were fixed by adding 2.5% paraformaldehyde and 0.04% glutaraldehyde (final concentrations) to the culture media, followed by incubation at room temperature for 15 mins and 30 mins on ice. Bacteria were then washed in PBS and resuspended in GTE buffer (50 mM glucose, 25 mM Tris, and 10 mM EDTA, pH 8.0). […]

Series [4] concerns the target T1, recombinantly purified TEM-1 (Escherichia coli, UniProt P62593).
T1 construct: DNA TEM (870 bp) or SHV (894 bp) were each sub-cloned into a PUC57 vector cloning site NdeI/XhoI; His-tag (N); TEV cleavage site (N); made in house; host or cells: E. coli BL21 (DE3)
It is filed as biochemical, E. coli. To be noted: thioflavin-T aggregation assay. The text has this:
Three replicates are shown for each condition. […] A single representative image is shown. […] Three replicates are shown for each condition. […] A single representative image is shown. […] A single representative image is shown. […] A single representative image is shown.

Bounds are passed on as bounds.

T1 sequence (P62593 24-286 limits assumed): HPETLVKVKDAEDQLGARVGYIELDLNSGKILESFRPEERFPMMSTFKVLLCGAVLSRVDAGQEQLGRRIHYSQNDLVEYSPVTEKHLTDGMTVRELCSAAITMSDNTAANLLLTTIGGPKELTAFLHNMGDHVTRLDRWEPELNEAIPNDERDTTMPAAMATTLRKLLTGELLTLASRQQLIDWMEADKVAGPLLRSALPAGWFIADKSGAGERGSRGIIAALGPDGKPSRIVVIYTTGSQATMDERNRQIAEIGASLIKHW

Ac-RLTAFLHNRRPRLTAFLHNRR-NH2 [TEM3.0]: in the series on E. coli strain UZ_TEM104, the MIC peptide is >100 mg/L.
Turning to Ac-RLTAFLHNRRPRLTAFLRQRR-NH2 [TEM3.2], in the series on human erythrocytes, the “hemolysis of human erythrocytes” value was “not hemolytic”. Besides, the “cytotoxicity (Cell Titer Blue)” value in the series with HEK293 is “not cytotoxic”. In series [1], the “induced aggregation of fluorescent proteins” value is given as “did not observe any induced aggregation”. The “MIC Ampicillin in the presence of additive” value in series [2] was determined as 25 mg/L. Further, the inclusion body formation result in series [3] was “only very limited inclusion body formation”. Further, the “induction of aggregation of recombinantly purified TEM beta-lactamase” value in series [4] is “potent inducer of the aggregation”.

Values taken from patent US20240165196A1, “Beta-Lactamase Inhibitors” (VIB VZW, priority 2021, published 2024).
